The text below walks through data of patent US7094781B2, “Sulfamides and their use as endothelin receptor antagonists” (Actelion Pharmaceuticals Ltd., priority 2000, dated 2006).

What is called IC50 is the concentration needed to halve the response being measured.

Assay [1] deals with T1, ETA receptors (rat aortic rings) (Rattus norvegicus, UniProt P26684).
T1 construct: The thoracic aorta or trachea were excised, dissected and cut in 3–5 mm rings; from tissue; host or cells: thoracic aorta rings of adult Wistar rats, endothelium removed
T1 sequence (P26684 21-426): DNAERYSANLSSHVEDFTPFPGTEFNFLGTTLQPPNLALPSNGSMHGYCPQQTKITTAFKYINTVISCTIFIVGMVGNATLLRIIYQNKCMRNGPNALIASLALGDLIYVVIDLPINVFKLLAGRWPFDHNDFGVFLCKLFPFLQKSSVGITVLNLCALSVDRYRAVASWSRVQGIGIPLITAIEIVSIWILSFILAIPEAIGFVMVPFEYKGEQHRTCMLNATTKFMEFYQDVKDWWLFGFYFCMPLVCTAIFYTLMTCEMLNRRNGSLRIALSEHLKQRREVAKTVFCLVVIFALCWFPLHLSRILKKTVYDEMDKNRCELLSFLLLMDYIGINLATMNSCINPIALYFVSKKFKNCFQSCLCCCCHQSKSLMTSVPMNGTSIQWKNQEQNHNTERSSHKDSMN
As to the kind of experiment: Inhibition of endothelin-1-induced contraction on isolated rat aortic rings. The conditions noted are these: read-out: pA2 value ETA (converted).
Procedure: 2) Inhibition of Endothelin-induced Contractions on Isolated Rat Aortic Rings (ETA Receptors) and Rat Tracheal Rings (ETB Receptors):
The functional inhibitory potency of the endothelin antagonists was assessed by their inhibition of the contraction induced by endothelin-1 on rat aortic rings (ETA receptors) and of the contraction induced by sarafotoxin S6c on rat tracheal rings (ETB receptors). Adult Wistar rats were anesthetized and exsanguinated. The thoracic aorta or trachea were excised, dissected and cut in 3–5 mm rings. The endothelium/epithelium was removed by gentle rubbing of the intimal surface. […] The rings were connected to force transducers and isometric tension was recorded (EMKA Technologies SA, Paris, France). The rings were stretched to a resting tension of 3 g (aorta) or 2 g (trachea). […] The functional inhibitory potency of the test compound was assessed by calculating the concentration ratio, i.e. the shift to the right of the EC50 induced by different concentrations of test compound. EC50 is the concentration of endothelin needed to get a half-maximal contraction, pA2 is the negative logarithm of the antagonist concentration which induces a two-fold shift in the EC50 value.

Assay [2] concerns the target T2, human recombinant ETA receptor (Homo sapiens, UniProt P25101).
T2 construct: expressed in transfected cells; host or cells: CHO cells (microsomal membranes)
T2 sequence (P25101 21-427): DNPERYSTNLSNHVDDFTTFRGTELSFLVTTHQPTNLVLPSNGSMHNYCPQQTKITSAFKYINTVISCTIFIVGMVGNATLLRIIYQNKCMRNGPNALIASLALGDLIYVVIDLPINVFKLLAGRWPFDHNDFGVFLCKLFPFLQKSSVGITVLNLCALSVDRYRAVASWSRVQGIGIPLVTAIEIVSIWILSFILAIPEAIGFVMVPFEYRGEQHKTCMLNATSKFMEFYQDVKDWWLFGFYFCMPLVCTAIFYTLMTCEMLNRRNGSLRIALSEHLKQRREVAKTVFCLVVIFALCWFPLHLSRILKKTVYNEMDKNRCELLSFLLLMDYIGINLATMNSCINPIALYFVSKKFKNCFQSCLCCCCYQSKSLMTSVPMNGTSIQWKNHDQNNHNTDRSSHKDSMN
As to the kind of experiment: Inhibition of [125I]ET-1 binding to membranes from CHO cells carrying human ETA receptors.

Assay [3] has as its target T3, human recombinant ETB receptor (Homo sapiens, UniProt P24530).
T3 construct: expressed in transfected cells; host or cells: CHO cells (microsomal membranes)
T3 sequence (P24530 27-442): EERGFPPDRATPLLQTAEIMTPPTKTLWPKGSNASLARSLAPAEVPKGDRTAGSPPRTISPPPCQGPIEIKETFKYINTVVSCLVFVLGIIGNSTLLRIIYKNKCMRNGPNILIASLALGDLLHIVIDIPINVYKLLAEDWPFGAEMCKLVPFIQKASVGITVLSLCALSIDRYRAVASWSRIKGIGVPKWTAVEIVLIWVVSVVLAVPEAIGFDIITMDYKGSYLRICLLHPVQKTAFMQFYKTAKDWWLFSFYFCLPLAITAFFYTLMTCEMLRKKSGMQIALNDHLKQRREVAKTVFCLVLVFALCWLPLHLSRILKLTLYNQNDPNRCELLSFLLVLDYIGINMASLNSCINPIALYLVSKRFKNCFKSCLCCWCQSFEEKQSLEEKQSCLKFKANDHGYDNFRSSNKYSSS
Briefly: Inhibition of [125I]ET-1 binding to membranes from CHO cells carrying human ETB receptors.

Consider `O=S(=O)(NCc1ccccc1)Nc1ncnc(OCCOc2ncc(Br)cn2)c1-c1ccc(Cl)cc1` [Example 14, benzyl sulfamic acid-[6-[2-(5-bromo-pyrimidin-2-yloxy)-ethoxy]-5-(4-chlorophenyl)-4-pyrimidinyl]-amide], for which the Kb in assay [1] was 3.98 nM. For the same compound, the IC50 in assay [2] is 5.6 nM.
For `COc1ccccc1Oc1c(NS(=O)(=O)NCc2ccccc2)nc(-c2ncccn2)nc1OCCOc1ncc(Br)cn1` [Example 37], in that order: 14.8 nM and 16 nM.
In the case of `O=S(=O)(NCc1ccccc1)Nc1ncnc(OCCOc2ncc(Br)cn2)c1-c1ccc(Br)cc1` [Example 100], in assay [1], the Kb was 3.63 nM. Also, the IC50 in assay [2] is 0.76 nM.
Consider `COc1ccc(CNS(=O)(=O)Nc2ncnc(OCCOc3ncc(Br)cn3)c2Oc2cc(OC)ccc2Cl)cc1` [Example 163], for which the half-maximal inhibitory concentration (IC50) turned out to be 80 nM in assay [3] and 0.44 nM in assay [2].
Turning to `COc1ccc(CNS(=O)(=O)Nc2ncnc(OCCOc3ncc(OC)cn3)c2Oc2cc(OC)ccc2Cl)cc1` [Example 164], the 50% inhibitory concentration (IC50) in assay [3] was 81 nM; in assay [2], 1 nM.
For `COc1ccc(CNS(=O)(=O)Nc2nc(-c3ncccn3)nc(OCCOc3ncc(Br)cn3)c2Oc2ccccc2OC)cc1OC` [Example 166], in that order: 3 nM and 1 nM.
For `COc1ccc(CNS(=O)(=O)Nc2nc(-c3ncccn3)nc(OCCOc3ncccn3)c2Oc2ccccc2OC)cc1OC` [Example 167], in that order: 6.4 nM and 5.2 nM.
On the same counts, the results for `COc1ccc(CNS(=O)(=O)Nc2nc(-c3ncccn3)nc(OCCOC(=O)Nc3ccccc3)c2Oc2ccccc2OC)cc1OC` [Example 168] are 1.6 nM and 2.7 nM.
Consider `COc1cccc(CNS(=O)(=O)Nc2nc(-c3ncccn3)nc(OCCOc3ncc(Br)cn3)c2Oc2ccccc2OC)c1` [Example 170], for which the half-maximal inhibitory concentration (IC50) was 42 nM in assay [3] and 1.7 nM in assay [2].
For `COc1cccc(CNS(=O)(=O)Nc2nc(-c3ncccn3)nc(OCCOc3ncccn3)c2Oc2ccccc2OC)c1` [Example 171], in that order: 61 nM and 11 nM.
On to `COc1cccc(CNS(=O)(=O)Nc2nc(-c3ncccn3)nc(OCCOC(=O)Nc3ccccc3)c2Oc2ccccc2OC)c1` [Example 172], for which the concentration for half-maximal inhibition (IC50) in assay [3] was 16 nM; in assay [2] it was 3 nM.
Turning to `COc1ccccc1CNS(=O)(=O)Nc1nc(-c2ncccn2)nc(OCCOc2ncc(Br)cn2)c1Oc1ccccc1OC` [Example 174], the 50% inhibitory concentration (IC50) in assay [3] is 93 nM; in assay [2] it was 3.7 nM.
On the same counts, the results for `COc1ccccc1CNS(=O)(=O)Nc1nc(-c2ncccn2)nc(OCCOc2ncccn2)c1Oc1ccccc1OC` [Example 175] are 62 nM and 22 nM.
On the same counts, the results for `COc1ccccc1CNS(=O)(=O)Nc1nc(-c2ncccn2)nc(OCCOC(=O)Nc2ccccc2)c1Oc1ccccc1OC` [Example 176] are 22 nM and 2.5 nM.
On the same counts, the results for `COc1ccccc1Oc1c(NS(=O)(=O)NCCc2ccccc2)nc(-c2ccncc2)nc1OCCOC(=O)Nc1ccccc1` [Example 181] are 224 nM and 14.3 nM.
Take `COc1ccccc1Oc1c(NS(=O)(=O)NCCc2ccccc2)nc(-c2ccncc2)nc1OCCOc1ncc(Br)cn1` [Example 182]: the concentration for half-maximal inhibition (IC50) in assay [3] was 1870 nM; in assay [2] it was 29 nM.
On the same counts, the results for `COc1cnc(OCCOc2nc(-c3ncccn3)nc(NS(=O)(=O)N(C)Cc3ccccc3)c2Oc2ccccc2OC)nc1` [Example 188] are 290 nM and 11 nM.
On the same counts, the results for `CN(Cc1ccccc1)S(=O)(=O)Nc1ncnc(OCCOc2ncc(Br)cn2)c1-c1ccc(Cl)cc1` [Example 193] are above 1000 nM and 3.6 nM.
For `COc1cnc(OCCOc2ncnc(NS(=O)(=O)N(C)Cc3ccccc3)c2-c2ccc(Cl)cc2)nc1` [Example 194], in that order: above 1000 nM and 9.5 nM.
Take `CSc1cnc(OCCOc2ncnc(NS(=O)(=O)NC3CC3)c2-c2ccc(Br)cc2)nc1` [Example 197]: the IC50 in assay [3] is 418 nM; in assay [2], 1.16 nM.
For `COc1ccccc1Oc1c(NS(=O)(=O)NC2CC2)nc(-c2ncccn2)nc1OCCOc1ncc(Br)cn1` [Example 199], in that order: 205 nM and 12 nM.
For `COc1cnc(OCCOc2nc(-c3ncccn3)nc(NS(=O)(=O)NC3CC3)c2Oc2ccccc2OC)nc1` [Example 200], in that order: 310 nM and 23 nM.
On the same counts, the results for `COc1ccccc1Oc1c(NS(=O)(=O)NC2CC2)nc(-c2ccncc2)nc1OCCOc1ncc(Br)cn1` [Example 202] are 351 nM and 9.6 nM.
`COc1ccccc1Oc1c(NS(=O)(=O)NCc2ccccc2)nc(S(C)(=O)=O)nc1OCCO` [Example 204, Benzylsulfamic acid [6-(2-hydroxy-ethoxy)-2-methanesulfonyl-5-(2-methoxy-phenoxy)-pyrimidin-4-yl]-amide]: the values for the IC50 in assay [3] and in assay [2] were 1050 nM and 390 nM, respectively.
On the same counts, the results for `COc1ccccc1Oc1c(NS(=O)(=O)NCc2ccccc2)nc(N2CCOCC2)nc1OCCO` [Example 205, benzylsulfamic acid [6-(2-hydroxy-ethoxy)-5-(2-methoxy-phenoxy)-2-morpholin-4-yl-pyrimidin-4-yl]-amide] are 623 nM and 135 nM.
For `COc1ccccc1Oc1c(NS(=O)(=O)NCc2ccccc2)nc(-c2ccnc(-c3nnn[nH]3)c2)nc1OC` [Example 207, benzylsulfamic acid [6-methoxy-5-(2-methoxy-phenoxy)-2-[2-(1H-tetrazol-5-yl)-pyridin-4-yl]-pyrimidin-4-yl]-amide], in that order: above 1000 nM and 17 nM.
For `COc1ccccc1Oc1c(NS(=O)(=O)NCc2ccccc2)nc(-c2ccnc(-c3nnn[nH]3)c2)nc1OCCO` [Example 208, Benzylsulfamic acid [6-(2-hydroxy-ethoxy)-5-(2-methoxy-phenoxy)-2-[2-(1H-tetrazol-5-yl)-pyridin-4-yl]-pyrimidin-4-yl]-amide], in that order: 342 nM and 17 nM.
Take `C=CCOc1nc(-c2ccnc(-c3nnn[nH]3)c2)nc(NS(=O)(=O)NCc2ccccc2)c1Oc1ccccc1OC` [Example 209, Benzylsulfamic acid [6-allyloxy-5-(2-methoxy-phenoxy)-2-[2-(1H-tetrazol-5-yl)-pyridin-4-yl]-pyrimidin-4-yl]-amide]: the IC50 is above 1000 nM in assay [3] and 733 nM in assay [2].
For `C#CCOc1nc(-c2ccnc(-c3nnn[nH]3)c2)nc(NS(=O)(=O)NCc2ccccc2)c1Oc1ccccc1OC` [Example 210, Benzylsulfamic acid [5-(2-methoxy-phenoxy)-6-prop-2-ynyloxy-2-[2-(1H-tetrazol-5-yl)-pyridin-4-yl]-pyrimidin-4-yl]-amide], in that order: 936 nM and 23 nM.
Regarding `COc1ccc(Cl)c(Oc2c(NS(=O)(=O)NCc3ccccc3)ncnc2OCCO)c1` [Example 211, Benzylsulfamic acid [5-(2-chloro-5-methoxy-phenoxy)-6-(2-hydroxy-ethoxy)-pyrimidin-4-yl]-amide], the figures for the IC50 in assay [3] and in assay [2] were 722 nM and 290 nM, respectively.
For `COc1ccc(Cl)c(Oc2c(NS(=O)(=O)NCc3ccccc3)ncnc2OCCOc2ncc(SC)cn2)c1` [Example 213, Benzylsulfamic acid [6-[2-(5-methylsulfanyl-pyrimidin-2-yloxy)-ethoxy]-5-(2-chloro-5-methoxy-phenoxy)-pyrimidin-4-yl]-amide], in that order: 347 nM and 1.32 nM.
For `COc1ccc(Cl)c(Oc2c(NS(=O)(=O)NCc3ccccc3)ncnc2OCCOc2ncc(S(C)(=O)=O)cn2)c1` [Example 214, Benzylsulfamic acid [5-(2-chloro-5-methoxy-phenoxy)-6-[2-(5-methanesulfonyl-pyrimidin-2-yloxy)-ethoxy]-pyrimidin-4-yl]-amide], in that order: 241 nM and 0.76 nM.
